Experimental data: ChEMBL document CHEMBL1201862, “PubChem BioAssay data set” (2004)
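Values below derive from 48-hour exposures of cells grown in 96-well plates, with endpoints linearly interpolated between the two concentrations bracketing the appropriate inhibition level. GI50 marks 50% less growth.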 Active and inactive are the calls of the source. Cut-off read from the data, not from the text of the source: active = GI50 up to about 1.1 µM and inactive = higher.

Columns and labels:
Assay in all cases: growth of human tumour cells (NCI), 48 h
SN12C = test system: SN12C
BT-549 = test system: BT-549
HCC 2998 = test system: HCC 2998
OVCAR-8 = test system: OVCAR-8
MCF7 = test system: MCF7
SR = test system: SR
HCT-116 = test system: HCT-116
ACHN = test system: ACHN
KM12 = test system: KM12
SNB-75 = test system: SNB-75
RXF 393 = test system: RXF 393
CAKI-1 = test system: CAKI-1
SK-MEL-2 = test system: SK-MEL-2
OVCAR-4 = test system: OVCAR-4
LOX IMVI = test system: LOX IMVI
MDA-MB-231 = test system: MDA-MB-231
IGROV-1 = test system: IGROV-1
HOP-62 = test system: HOP-62
K562 = test system: K562
HOP-92 = test system: HOP-92

Row | SMILES | GI50 (SN12C) | GI50 (BT-549) | GI50 (HCC 2998) | GI50 (OVCAR-8) | GI50 (MCF7) | GI50 (SR) | GI50 (HCT-116) | GI50 (ACHN) | GI50 (KM12) | GI50 (SNB-75) | GI50 (RXF 393) | GI50 (CAKI-1) | GI50 (SK-MEL-2) | GI50 (OVCAR-4) | GI50 (LOX IMVI) | GI50 (MDA-MB-231) | GI50 (IGROV-1) | GI50 (HOP-62) | GI50 (K562) | GI50 (HOP-92)
1 | C[C@]12CC[C@H](O)CC1=CC[C@@H]1[C@@H]2CC[C@]2(C)C(=O)CC[C@@H]12 [PRASTERONE] | > 100 µM (inactive) | > 100 µM (inactive) | > 100 µM (inactive) | > 100 µM (inactive) | > 100 µM (inactive) | > 100 µM (inactive) | > 100 µM (inactive) | > 100 µM (inactive) | > 100 µM (inactive) | > 100 µM (inactive) | > 100 µM (inactive) | > 100 µM (inactive) | > 100 µM (inactive) | > 100 µM (inactive) | > 100 µM (inactive) |  |  |  |  | 
2 | COC(=O)[C@H](Cc1ccccc1)NP(=O)(O)OCC1C=CC(n2cc(C)c(=O)[nH]c2=O)O1 (stereo partly specified) | > 100 µM (inactive) | > 100 µM (inactive) | > 100 µM (inactive) | > 100 µM (inactive) | > 100 µM (inactive) |  | > 100 µM (inactive) | 26.3 µM (inactive) | > 100 µM (inactive) | > 100 µM (inactive) | > 100 µM (inactive) | > 100 µM (inactive) | > 100 µM (inactive) | > 100 µM (inactive) | > 100 µM (inactive) | > 100 µM (inactive) | > 100 µM (inactive) | > 100 µM (inactive) | > 100 µM (inactive) | > 100 µM (inactive)
3 | CC(C)CC1[C@@H](OCc2ccccc2)COS(=O)(=O)N1Cc1ccccc1 (stereo partly specified) | > 100 µM (inactive) | > 100 µM (inactive) |  | > 100 µM (inactive) | 91.8 µM (inactive) |  | 53.5 µM (inactive) | > 100 µM (inactive) | 20.7 µM (inactive) | 82 µM (inactive) |  | > 100 µM (inactive) | > 100 µM (inactive) | > 100 µM (inactive) | > 100 µM (inactive) | > 100 µM (inactive) | 81.7 µM (inactive) | > 100 µM (inactive) | 50.9 µM (inactive) | > 100 µM (inactive)
4 | O=S(=O)(O)c1ccc2c(/N=N/c3cccc4ccccc34)c(O)c(S(=O)(=O)O)cc2c1 | > 100 µM (inactive) | > 100 µM (inactive) |  | > 100 µM (inactive) |  |  | > 100 µM (inactive) | > 100 µM (inactive) | > 100 µM (inactive) | > 100 µM (inactive) | > 100 µM (inactive) | > 100 µM (inactive) | > 100 µM (inactive) | > 100 µM (inactive) | > 100 µM (inactive) | > 100 µM (inactive) | > 100 µM (inactive) | > 100 µM (inactive) | > 100 µM (inactive) | > 100 µM (inactive)
5 | N#Cc1c(-c2ccc([N+](=O)[O-])cc2)c(C#N)c(=O)n(NS(=O)(=O)c2ccccc2)c1O | > 100 µM (inactive) | > 100 µM (inactive) | > 100 µM (inactive) | > 100 µM (inactive) | > 100 µM (inactive) |  | > 100 µM (inactive) | > 100 µM (inactive) |  |  | > 100 µM (inactive) | > 100 µM (inactive) | > 100 µM (inactive) | > 100 µM (inactive) | > 100 µM (inactive) | > 100 µM (inactive) | > 100 µM (inactive) | > 100 µM (inactive) | > 100 µM (inactive) | > 100 µM (inactive)
6 | COc1cc(C2C3=C(N=C4SC(C(C)=O)=C(C)N42)c2ccccc2CC3)cc(OC)c1OC (stereo unspecified) | > 100 µM (inactive) | > 100 µM (inactive) | > 100 µM (inactive) | > 100 µM (inactive) | 75.5 µM (inactive) |  | > 100 µM (inactive) | > 100 µM (inactive) | > 100 µM (inactive) | 53.7 µM (inactive) | 46.8 µM (inactive) |  | > 100 µM (inactive) | > 100 µM (inactive) | > 100 µM (inactive) | 49.2 µM (inactive) | 52 µM (inactive) | 97.9 µM (inactive) | 26.4 µM (inactive) | > 100 µM (inactive)
7 | CN(C)N1C(=O)S/C(=C\c2ccc([N+](=O)[O-])cc2)C1=O | > 100 µM (inactive) |  | > 100 µM (inactive) | 99.3 µM (inactive) | > 100 µM (inactive) | 57.4 µM (inactive) | > 100 µM (inactive) | > 100 µM (inactive) | > 100 µM (inactive) | 0.0458 µM (active) | > 100 µM (inactive) | > 100 µM (inactive) | > 100 µM (inactive) | > 100 µM (inactive) | > 100 µM (inactive) | > 100 µM (inactive) | > 100 µM (inactive) | > 100 µM (inactive) |  | > 100 µM (inactive)
